Usually MIC stands for the lowest concentration found to suppress growth.

Molecules are shown by their SMILES. Converted amounts (≈) assume the structure as drawn. Where only a bound is given, the exact number is not on record here.

The experiment concerns M. catarrhalis A894. The experiment in a line: Minimal inhibitory concentration (MIC), microdilution method in cation-adjusted Mueller-Hinton Broth (CLSI M7-A7). In kind it is cell-based. Conditions: Moraxella catarrhalis, strain A894. How it is done:
Minimal inhibitory concentrations (MICs; mg/1) were determined in cation-adjusted Mueller-Hinton Broth by a microdilution method following the description given in “Methods for Dilution Antimicrobial Susceptibility Tests for Bacteria that Grow Aerobically”, Approved standard, 7th ed., Clinical and Laboratory Standards Institute (CLSI) Document M7-A7, Wayne, Pa., USA, 2006.
Take `O=C1CSc2ccc(N3C[C@H](CCNC[C@H]4Cn5c(=O)ccc6ccc(F)c4c65)OC3=O)cc2N1` [Example 49, (S)-9-fluoro-1-({2-[(S)-2-oxo-3-(3-oxo-3,4-dihydro-2H-benzo[1,4]thiazin-6-yl)-oxazolidin-5-yl]-ethylamino}-methyl)-1,2-dihydro-pyrrolo[3,2,1-ij]quinolin-4-one]: the MIC was ≤ 0.031 µg/mL.
In the case of `O=C1CSc2ccc(N3C[C@H](CCNC[C@@H]4Cn5c(=O)ccc6ccc(F)c4c65)OC3=O)cc2N1` [Example 50, (R)-9-fluoro-1-({2-[(S)-2-oxo-3-(3-oxo-3,4-dihydro-2H-benzo[1,4]thiazin-6-yl)-oxazolidin-5-yl]-ethylamino}-methyl)-1,2-dihydro-pyrrolo[3,2,1-ij]quinolin-4-one], the MIC is ≤ 0.031 µg/mL.
`O=C1CSc2ccc(N3C[C@@H](CCN[C@@H]4Cn5c(=O)cnc6cccc4c65)OC3=O)cc2N1` [Example 54, (S)-6-{2-[(R)-2-oxo-3-(3-oxo-3,4-dihydro-2H-benzo[1,4]thiazin-6-yl)-oxazolidin-5-yl]-ethylamino}-5,6-dihydro-pyrrolo[1,2,3-de]quinoxalin-3-one] yielded a minimal inhibitory concentration (MIC) of 0.25 µg/mL (≈ 0.539 µM).
Take `O=C1CSc2ccc(N3C[C@H](CCN[C@@H]4Cn5c(=O)cnc6cccc4c65)OC3=O)cc2N1` [Example 55, (S)-6-{2-[(S)-2-oxo-3-(3-oxo-3,4-dihydro-2H-benzo[1,4]thiazin-6-yl)-oxazolidin-5-yl]-ethylamino}-5,6-dihydro-pyrrolo[1,2,3-de]quinoxalin-3-one]: the MIC was ≤ 0.031 µg/mL.
As to `O=C1COc2ccc(N3C[C@@H](CCCN[C@@H]4Cn5c(=O)cnc6ccc(F)c4c65)OC3=O)cc2N1` [Example 57, (S)-7-fluoro-6-{3-[(R)-2-oxo-3-(3-oxo-3,4-dihydro-2H-benzo[1,4]oxazin-6-yl)-oxazolidin-5-yl]-propylamino}-5,6-dihydro-pyrrolo[1,2,3-de]quinoxalin-3-one], the minimal inhibitory concentration (MIC) is ≤ 0.031 µg/mL.
In the case of `O=C1CSc2ccc(N3C[C@@H](CCCN[C@@H]4Cn5c(=O)cnc6ccc(F)c4c65)OC3=O)cc2N1` [Example 58, (S)-7-fluoro-6-{3-[(R)-2-oxo-3-(3-oxo-3,4-dihydro-2H-benzo[1,4]thiazin-6-yl)-oxazolidin-5-yl]-propylamino}-5,6-dihydro-pyrrolo[1,2,3-de]quinoxalin-3-one] it was ≤ 0.031 µg/mL.
Consider `O=C1CSc2ccc(N3C[C@@H](CCCN[C@H]4Cn5c(=O)cnc6cccc4c65)OC3=O)cc2N1` [Example 64, (R)-6-{3-[(R)-2-oxo-3-(3-oxo-3,4-dihydro-2H-benzo[1,4]thiazin-6-yl)-oxazolidin-5-yl]-propylamino}-5,6-dihydro-pyrrolo[1,2,3-de]quinoxalin-3-one], for which the MIC was ≤ 0.031 µg/mL.
With `O=C1COc2ccc(N3C[C@@H](CCCN[C@H]4Cn5c(=O)cnc6cccc4c65)OC3=O)cc2N1` [Example 65, (R)-6-{3-[(R)-2-oxo-3-(3-oxo-3,4-dihydro-2H-benzo[1,4]oxazin-6-yl)-oxazolidin-5-yl]-propylamino}-5,6-dihydro-pyrrolo[1,2,3-de]quinoxalin-3-one], the minimum inhibitory concentration (MIC) is ≤ 0.031 µg/mL.
Regarding `O=C1CSc2ccc(N3C[C@@H](CCCN(CCO)[C@@H]4Cn5c(=O)cnc6ccc(F)c4c65)OC3=O)cc2N1` [Example 66, (S)-7-fluoro-6-((2-hydroxy-ethyl)-{3-[(R)-2-oxo-3-(3-oxo-3,4-dihydro-2H-benzo[1,4]thiazin-6-yl)-oxazolidin-5-yl]-propyl}-amino)-5,6-dihydro-pyrrolo[1,2,3-de]quinoxalin-3-one], the MIC was ≤ 0.031 µg/mL.
In the case of `O=C1COc2ccc(N3C[C@@H](CCCN(CCO)[C@@H]4Cn5c(=O)cnc6ccc(F)c4c65)OC3=O)cc2N1` [Example 67, (S)-7-fluoro-6-((2-hydroxy-ethyl)-{3-[(R)-2-oxo-3-(3-oxo-3,4-dihydro-2H-benzo[1,4]oxazin-6-yl)-oxazolidin-5-yl]-propyl}-amino)-5,6-dihydro-pyrrolo[1,2,3-de]quinoxalin-3-one] it was ≤ 0.063 µg/mL; in that of `O=C1COc2ccc(N3C[C@@H](CCCN[C@@H]4Cn5c(=O)cnc6ccc(F)c4c65)OC3=O)nc2N1` [Example 71, (S)-7-fluoro-6-{3-[(R)-2-oxo-3-(3-oxo-3,4-dihydro-2H-pyrido[3,2-b][1,4]oxazin-6-yl)-oxazolidin-5-yl]-propylamino}-5,6-dihydro-pyrrolo[1,2,3-de]quinoxalin-3-one], ≤ 0.031 µg/mL; in that of `O=C1CSc2ccc(N3C[C@@H](CCCN[C@@H]4Cn5c(=O)ccc6cccc4c65)OC3=O)cc2N1` [Example 72, (S)-1-{3-[(R)-2-oxo-3-(3-oxo-3,4-dihydro-2H-benzo[1,4]thiazin-6-yl)-oxazolidin-5-yl]-propylamino}-1,2-dihydro-pyrrolo[3,2,1-ij]quinolin-4-one], ≤ 0.031 µg/mL.
For the molecule `O=C1COc2ccc(N3C[C@@H](CCCN[C@@H]4Cn5c(=O)ccc6cccc4c65)OC3=O)cc2N1` [Example 73, (S)-1-{3-[(R)-2-oxo-3-(3-oxo-3,4-dihydro-2H-benzo[1,4]oxazin-6-yl)-oxazolidin-5-yl]-propylamino}-1,2-dihydro-pyrrolo[3,2,1-ij]quinolin-4-one], the MIC was ≤ 0.031 µg/mL.
`O=C1COc2ccc(N3C[C@@H](CCCN[C@@H]4Cn5c(=O)ccc6cccc4c65)OC3=O)nc2N1` [Example 74, (S)-1-{3-[(R)-2-oxo-3-(3-oxo-3,4-dihydro-2H-pyrido[3,2-b][1,4]oxazin-6-yl)-oxazolidin-5-yl]-propylamino}-1,2-dihydro-pyrrolo[3,2,1-ij]quinolin-4-one]: the MIC is ≤ 0.031 µg/mL.
Take `O=C1COc2ccc(N3C[C@@H](CCCN[C@H]4Cn5c(=O)cnc6cccc4c65)OC3=O)nc2N1` [Example 75, (R)-6-{3-[(R)-2-oxo-3-(3-oxo-3,4-dihydro-2H-pyrido[3,2-b][1,4]oxazin-6-yl)-oxazolidin-5-yl]-propylamino}-5,6-dihydro-pyrrolo[1,2,3-de]quinoxalin-3-one]: the MIC is ≤ 0.031 µg/mL.
Consider `O=C1CSc2ccc(N3C[C@@H](CCNC[C@H]4Cn5c(=O)ccc6nccc4c65)OC3=O)cc2N1` [Example 76, (S)-4-({2-[(R)-2-oxo-3-(3-oxo-3,4-dihydro-2H-benzo[1,4]thiazin-6-yl)-oxazolidin-5-yl]-ethylamino}-methyl)-4,5-dihydro-pyrrolo[3,2,1-de][1,5]naphthyridin-7-one], for which the MIC is ≤ 0.031 µg/mL.
With `O=C1CSc2ccc(N3C[C@H](CCNC[C@H]4Cn5c(=O)ccc6nccc4c65)OC3=O)cc2N1` [Example 77, (S)-4-({2-[(S)-2-oxo-3-(3-oxo-3,4-dihydro-2H-benzo[1,4]thiazin-6-yl)-oxazolidin-5-yl]-ethylamino}-methyl)-4,5-dihydro-pyrrolo[3,2,1-de][1,5]naphthyridin-7-one], inhibition of growth (MIC) required 0.031 µg/mL (≈ 0.0649 µM).
Take `O=C1CSc2ccc(N3C[C@H](CCNC[C@@H]4Cn5c(=O)ccc6nccc4c65)OC3=O)cc2N1` [Example 78, (R)-4-({2-[(S)-2-oxo-3-(3-oxo-3,4-dihydro-2H-benzo[1,4]thiazin-6-yl)-oxazolidin-5-yl]-ethylamino}-methyl)-4,5-dihydro-pyrrolo[3,2,1-de][1,5]naphthyridin-7-one]: the minimum inhibitory concentration (MIC) was ≤ 0.031 µg/mL.
Take `O=C1CSc2ccc(N3C[C@H](CCCN[C@@H]4Cn5c(=O)cnc6ccc(F)c4c65)OC3=O)cc2N1` [Example 79, (S)-7-fluoro-6-{3-[(S)-2-oxo-3-(3-oxo-3,4-dihydro-2H-benzo[1,4]thiazin-6-yl)-oxazolidin-5-yl]-propylamino}-5,6-dihydro-pyrrolo[1,2,3-de]quinoxalin-3-one]: the MIC was ≤ 0.031 µg/mL.
As for `O=C1COc2ccc(N3C[C@H](CCCN[C@@H]4Cn5c(=O)cnc6ccc(F)c4c65)OC3=O)cc2N1` [Example 80, (S)-7-fluoro-6-{3-[(S)-2-oxo-3-(3-oxo-3,4-dihydro-2H-benzo[1,4]oxazin-6-yl)-oxazolidin-5-yl]-propylamino}-5,6-dihydro-pyrrolo[1,2,3-de]quinoxalin-3-one], the MIC was ≤ 0.031 µg/mL.
Turning to `O=C1CSc2ccc(N3C[C@H](CCCN[C@@H]4Cn5c(=O)ccc6cccc4c65)OC3=O)cc2N1` [Example 85, (S)-1-{3-[(S)-2-oxo-3-(3-oxo-3,4-dihydro-2H-benzo[1,4]thiazin-6-yl)-oxazolidin-5-yl]-propylamino}-1,2-dihydro-pyrrolo[3,2,1-ij]quinolin-4-one], the minimal inhibitory concentration (MIC) was ≤ 0.031 µg/mL.
Consider `O=C1COc2ccc(N3C[C@H](CCCN[C@@H]4Cn5c(=O)ccc6cccc4c65)OC3=O)cc2N1` [Example 86, (S)-1-{3-[(S)-2-oxo-3-(3-oxo-3,4-dihydro-2H-benzo[1,4]oxazin-6-yl)-oxazolidin-5-yl]-propylamino}-1,2-dihydro-pyrrolo[3,2,1-ij]quinolin-4-one], for which the MIC is ≤ 0.031 µg/mL.
In the case of `O=C1CSc2ccc(N3C[C@@H](CCN[C@@H]4Cn5c(=O)ccc6cccc4c65)OC3=O)cc2N1` [Example 87, (S)-1-{2-[(R)-2-oxo-3-(3-oxo-3,4-dihydro-2H-benzo[1,4]thiazin-6-yl)-oxazolidin-5-yl]-ethylamino}-1,2-dihydro-pyrrolo[3,2,1-ij]quinolin-4-one] it was ≤ 0.031 µg/mL; in that of `O=C1CSc2ccc(N3C[C@H](CCN[C@@H]4Cn5c(=O)ccc6cccc4c65)OC3=O)cc2N1` [Example 88, (S)-1-{2-[(S)-2-oxo-3-(3-oxo-3,4-dihydro-2H-benzo[1,4]thiazin-6-yl)-oxazolidin-5-yl]-ethylamino}-1,2-dihydro-pyrrolo[3,2,1-ij]quinolin-4-one], ≤ 0.031 µg/mL.
In the case of `O=C1COc2ccc(N3C[C@H](CCN[C@@H]4Cn5c(=O)ccc6cccc4c65)OC3=O)cc2N1` [Example 89, (S)-1-{2-[(S)-2-oxo-3-(3-oxo-3,4-dihydro-2H-benzo[1,4]oxazin-6-yl)-oxazolidin-5-yl]-ethylamino}-1,2-dihydro-pyrrolo[3,2,1-ij]quinolin-4-one] it was 0.063 µg/mL (≈ 0.141 µM); in that of `O=C1COc2ccc(N3C[C@@H](CCCN[C@H]4Cn5c(=O)cnc6ccc(F)c4c65)OC3=O)cc2N1` [Example 104, (R)-7-fluoro-6-{3-[(R)-2-oxo-3-(3-oxo-3,4-dihydro-2H-benzo[1,4]oxazin-6-yl)-oxazolidin-5-yl]-propylamino}-5,6-dihydro-pyrrolo[1,2,3-de]quinoxalin-3-one], ≤ 0.031 µg/mL.

(Values after US9822114B2, “Tricyclic oxazolidinone antibiotic compounds” (Idorsia Pharmaceuticals Ltd, priority 2008, dated 2017).)
